Data from US12404304B1, “Telomerase reverse transcriptase (TERT) expression enhancing compounds and methods for using the same” (Sierra Sciences, LLC, priority 2007, dated 2025).
Where two headings read alike, the source gives them in different places.

Experiments:
[1] = system: human TERT expression (hTERT mRNA); assay: Quantitative real-time RT-PCR of hTERT mRNA expression (Ct, transcripts) in compound-treated cells; assay type: cell-based
Excerpt: Telomerase is a ribonucleoprotein complex composed of the catalytic protein subunit (human telomerase reverse transcriptase or hTERT) and the RNA template. hTERT expression level can be measured by PCR.
Briefly, amplification of the target sequence is monitored per PCR cycle by detecting the fluorescence signal emitted by an internal probe that is degraded by the 5′ nuclease activity of the Taq polymerase. The emission signal accumulates in each sample, and the Ct required to reach a given fluorescence threshold is determined (Ct stands for Cycle Threshold and is a measure of the number of PCR cycles that are required to amplify a target—thus, a lower Ct score means that there is more abundant hTERT mRNA). Thus, the Ct value of a sample inversely correlates to the quantity of the starting cDNA which correlates to the number of mRNA transcripts. Using the cDNA of known quantity, a standard curve can be generated and used to determine the starting amount of mRNA transcripts based on the […] of each sample.
Quantitative real-time PCR can be done on cDNA from test compound-treated and nontreated cells by use of a ABI Prism 7900 Sequence Detection System (PE Applied Biosystems, Foster City, CA) following the Assays-on-Demand protocol (PE Applied Biosystems, Foster City, CA). Quantitative data can be analyzed using the Sequence Detection System software version 2.1 (PE Applied Biosystems).
The following compounds were tested in assays designed to identify compounds that enhance human TERT expression.

viable cells in culture = assay: Cell viability assay (CellTiter-Glo Luminescent Cell Viability Assay, ATP quantitation, percent of vehicle control)

| SMILES | Average Number of hTERT Transcripts ([1]; quantitative real-time RT-PCR) | Average Cell Viability after 24 Hours (% DMSO) (viable cells in culture) | Average Number of hTERT Transcripts [1] |
| --- | --- | --- | --- |
| CCNC(=O)c1cc(-c2cccs2)on1 [compound 1207] | 275.25 | 87.06 % DMSO |  |
| Cc1c(OS(=O)(=O)c2ccccc2)ccc2c3c(c(=O)oc12)CCCC3 [compound 1533] |  | 99.57 % DMSO | 35.76 |
| Cc1nn(-c2nc3ccccc3[nH]2)c(O)c1Cc1ccccc1Cl [compound 1144] | 54.47 | 40.68 % DMSO |  |
| CC[C@@]1(C2O[C@@H](C3O[C@@](O)(CC)[C@H](C)C[C@@H]3C)C[C@@H]2C)CC[C@H]([C@]2(C)CCC3(C[C@H](O)[C@@H](C)[C@@H]([C@H](C)[C@@H](OC)[C@H](C)C(=O)O)O3)O2)O1 (stereo partly shown) [compound 1469] |  | 60.18 % DMSO | 59.72 |
| Cc1cc(C)[n+]2nc3n(-c4ccccc4)c(C)cc(C)c-3c2n1 [compound 1227] | 72.86 | 77.50 % DMSO |  |
| O=[N+]([O-])c1ccc(S(=O)(=O)Nc2cc(Cl)ccc2O)cc1 [compound 1385] |  | 78.86 % DMSO | 21.71 |
| CCCNC(=O)c1cc(-c2ccc(F)cc2)on1 [compound 1180] | 56.10 | 81.47 % DMSO |  |
| CCCn1c(=O)n(CC)c(=O)c2ccccc21 [compound 1359] | 13.21 | 104.81 % DMSO |  |
| O=C(Nc1nc2ccc([N+](=O)[O-])cc2s1)c1cncc(Br)c1 [compound 1395] |  | 63.84 % DMSO | 39.44 |
| O=C(NC(c1ccccc1)c1ccc(Br)cc1)c1cccc(F)c1 (stereo not shown) [compound 1408] |  | 89.70 % DMSO | 3.47 |
| CCCC1=NN(c2ccc(C(=O)OCC)cc2)C(=O)C1 [compound 1484] |  | 62.51 % DMSO | 16.52 |
| CN(C(=O)c1cc2ccccc2oc1=O)C1(C)CCS(=O)(=O)C1 (stereo not shown) [compound 1309] | 10.58 | 119.29 % DMSO |  |
| Cn1cc(C(=O)N/N=C/c2c(O)ccc3ccccc23)ccc1=O [compound 1272] | 33.61 | 57.10 % DMSO |  |
| COC(=O)c1ccc(Cl)c2c1C1C=CCC1C(c1cccc(F)c1)N2 (stereo not shown) [compound 1459] |  | 72.75 % DMSO | 11.14 |
| CCN(Cc1ccncc1)C(=O)c1cccs1 [compound 1542] |  | 111.82 % DMSO | 3.43 |
| CSc1nc2nc(C)c(C(C)=O)c(C)n2n1 [compound 1361] | 17.57 | 109.24 % DMSO |  |
| O=C(O)c1c(-c2ccccc2)c2oc3ccccc3c2[nH]c1=O [compound 1238] | 5.16 | 89.10 % DMSO |  |
| CCCCCC(=O)N/N=C(/C)c1ccccn1 [compound 1294] | 105.99 | 74.63 % DMSO |  |
| CCOC(=O)c1cc2ccc(OC(=O)COc3ccc(C)cc3)cc2oc1=O [compound 1307] | 8.66 | 80.83 % DMSO |  |
| Nc1c2ccccc2nc2ccccc12 [compound 1456] |  | 57.96 % DMSO | 92.07 |
| CCCCNC(=O)CCc1c(C)nn(-c2nc(C)c(C)s2)c1O [compound 1135] | 23.88 | 88.69 % DMSO |  |

| SMILES | Average Number of hTERT Transcripts ([1]; quantitative real-time RT-PCR) | Average Cell Viability after 24 Hours (% DMSO) (viable cells in culture) | Average Number of hTERT Transcripts [1] |
| --- | --- | --- | --- |
| Oc1cc(-c2ccc(F)cc2)nn1-c1nc2ccccc2[nH]1 [compound 1110] | 86.68 | 100.67 % DMSO |  |
| Cc1ccc(SCc2cc(=O)n3nc(C)c(-c4ccc(F)cc4)c3[nH]2)cc1 [compound 1168] | 79.80 | 63.67 % DMSO |  |
| O=C(COc1ccc(F)cc1)N/N=C/c1cccc2cccnc12 [compound 1287] | 12.08 | 67.01 % DMSO |  |
| COc1ccc(OC)c(NC(=O)C2C3CCC(O3)C2C(=O)O)c1 (stereo not shown) [compound 1221] | 68.62 | 86.33 % DMSO |  |
| Cc1csc(-n2nc(C)c(CCC(=O)Nc3ccc(F)cc3)c2O)n1 [compound 1132] | 81.62 | 91.26 % DMSO |  |
| Cc1nn2c(=O)c(Cl)c(C)[nH]c2c1-c1ccccc1 [compound 1153] | 5.84 | 88.39 % DMSO |  |
| CC(=O)Oc1ccc(C2Nc3ccc4ccccc4c3C3C=CCC32)c(OC(C)=O)c1 (stereo not shown) [compound 1461] |  | 55.44 % DMSO | 29.65 |
| O=S(=O)(Nc1cccc2cccnc12)N1CCCCCC1 [compound 1373] |  | 65.74 % DMSO | 37.20 |
| COc1ccc(CCNC(=O)c2cc(-c3cccs3)on2)cc1O [compound 1502] |  | 91.65 % DMSO | 28.74 |
| CCC(=O)Nc1nnc(SCc2cc(=O)c3cccc(Cl)c3[nH]2)s1 [compound 1303] | 4.51 | 80.90 % DMSO |  |
| NNc1ncnc2sc3c(c12)CCCC3 [compound 1455] |  | 84.96 % DMSO | 130.06 |
| CC(C)Cc1nnc(SCC(=O)Nc2ccc(Br)cn2)[nH]1 [compound 1350] | 5.91 | 98.43 % DMSO |  |
| CCCc1cc(=O)n2ncc(-c3ccc(Cl)cc3)c2[nH]1 [compound 1158] | 71.35 | 62.57 % DMSO |  |
| COc1cc(C)ccc1OC1CCNCC1 [compound 1451] |  | 96.84 % DMSO | 5.80 |
| Cc1ccc(-c2cc(C(=O)NCCc3ccc(S(N)(=O)=O)cc3)no2)cc1 [compound 1487] |  | 95.31 % DMSO | 1.93 |
| CN1CCCC(OC(=O)COc2ccc(F)cc2)C1 (stereo not shown) [compound 1389] |  | 93.93 % DMSO | 9.17 |
| CCCCc1c(C)nn(-c2nc3ccccc3[nH]2)c1O [compound 1111] | 18.99 | 47.04 % DMSO |  |
| CCOC(=O)c1nn(-c2ccccc2)c(=O)c2c(NC(=O)c3c(F)cccc3Cl)scc12 [compound 1299] | 2.95 | 69.64 % DMSO |  |
| O=C(Nc1nc(-c2ccccn2)cs1)c1ccc(-c2nc3ccccc3s2)s1 [compound 1496] |  | 12.76 % DMSO | 11.43 |
| Cc1nn2c(=O)cc(-c3ccccc3)[nH]c2c1-c1ccc(F)cc1 [compound 1152] | 64.86 | 73.68 % DMSO |  |
